Data taken from patent US20110190503A1, “Thiazolopyridin-2-yloxy-phenyl and thiazolopyrazin-2-yloxy-phenyl amines as modulators of leukotriene A4 hydrolase” (Janssen Pharmaceutical NV, priority 2008, published 2011).

How the values were obtained:
[1] = target: T1, recombinant human LTA4 hydrolase (rhLTA4H) (Homo sapiens, UniProt P09960); test: Recombinant human LTA4 hydrolase assay for LTA4 hydrolase inhibitor activity; assay type: biochemical; settings: rhLTA4H, LTA4 substrate, LTB4 by immunoassay; single determination or average; read-out: IC50
T1 construct: made in house; host or cells: Spodoptera frugiperda (Sf-9) cells, recombinant baculovirus (pFastBac1)
T1 sequence (P09960 1-611): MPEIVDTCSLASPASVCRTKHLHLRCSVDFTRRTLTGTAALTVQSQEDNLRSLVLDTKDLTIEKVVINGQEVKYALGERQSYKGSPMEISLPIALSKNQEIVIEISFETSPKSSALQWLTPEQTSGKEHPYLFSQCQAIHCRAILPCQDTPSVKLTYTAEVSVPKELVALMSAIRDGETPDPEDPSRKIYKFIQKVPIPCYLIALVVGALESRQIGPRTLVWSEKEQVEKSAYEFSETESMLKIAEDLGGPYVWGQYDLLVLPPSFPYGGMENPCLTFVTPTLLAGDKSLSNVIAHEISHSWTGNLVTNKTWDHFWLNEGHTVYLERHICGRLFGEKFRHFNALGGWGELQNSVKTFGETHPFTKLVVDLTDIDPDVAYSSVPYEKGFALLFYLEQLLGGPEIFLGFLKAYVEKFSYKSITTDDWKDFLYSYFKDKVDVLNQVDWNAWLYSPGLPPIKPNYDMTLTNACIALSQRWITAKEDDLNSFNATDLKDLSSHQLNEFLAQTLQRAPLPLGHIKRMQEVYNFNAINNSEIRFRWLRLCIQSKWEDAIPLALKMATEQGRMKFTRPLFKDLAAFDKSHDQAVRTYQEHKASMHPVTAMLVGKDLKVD
How it was run: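 Recombinant human LTA4H from baculovirus-infected Sf-9 cells (10 ng) pre-incubated 10 min at rt with compound (10% DMSO in dilutions), then reacted with free-acid LTA4 for 30 min at rt. LTB4 measured by ELISA; IC50 by nonlinear regression. Values are single determinations or averages.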

[2] = tested on: LTB4 production by calcium ionophore-stimulated murine blood; test: LTB4 production by calcium ionophore-stimulated murine blood for LTA4H inhibitor activity; assay type: cell-based, CD-1 mice; settings: Mus musculus; murine blood diluted 1 in 15, calcium ionophore A23187, LTB4 by immunoassay; read-out: IC50
Description: Assay 2: LTB4 Production by Calcium Ionophore-Stimulated Murine Blood for LTA4H Inhibitor Activity
CD-1 mice were sacrificed, and blood was collected in heparin-containing syringes by cardiac puncture. […] After the microtiter plate contents were incubated for 15 min at 37° C. in a humidified incubator, calcium ionophore A23187 (Sigma Chemical Co., St. Louis, Mo.) was added to each sample well (final concentration=7 μg/mL). The incubation was continued under the same conditions for an additional 30 min to allow LTB4 formation. The reaction was terminated by centrifugation (833×g, 10 min at 4° C.), and supernatants were analyzed for LTB4 by a commercially available enzyme-linked immunoassay (Cayman Chemical Co.) according to the manufacturer's instructions. Positive controls, under essentially identical conditions but without addition of an inhibitor compound, and negative unstimulated controls, containing all assay components except calcium ionophore, were routinely run in each experiment. […] The values presented here are the result of a single determination or an average of two or more determinations, as indicated in parentheses following each value. For compounds tested three or more times, the average value is followed by the standard deviation

| SMILES | IC50 [1] | IC50 [2] |
| --- | --- | --- |
| NC(=O)N1CC2CN(CCc3ccc(Oc4nc5cccnc5s4)cc3)CC2C1 (stereo not shown) [Example 70, 5-{2-[4-([1,3]Thiazolo[5,4-b]pyridin-2-yloxy)phenyl]ethyl}hexahydropyrrolo[3,4-c]pyrrole-2(1H)-carboxamide] | 0.072 µM | 0.35 µM |
| NC(=O)N1C[C@H]2CC[C@@H](C1)N2CCc1ccc(Oc2nc3cccnc3s2)cc1 [Example 71, meso-8-{2-[4-([1,3]Thiazolo[5,4-b]pyridin-2-yloxy)phenyl]ethyl}-3,8-diazabicyclo[3.2.1]octane-3-carboxamide] | 0.081 µM | 0.28 µM |
| NC(=O)N[C@H]1C[C@H]2CC[C@@H](C1)N2CCc1ccc(Oc2nc3cccnc3s2)cc1 [Example 72, meso-1-[(3-endo)-8-{2-[4-([1,3]Thiazolo[5,4-b]pyridin-2-yloxy)phenyl]ethyl}-8-azabicyclo[3.2.1]oct-3-yl]urea] | 0.047 µM | 1.04 µM |
| NC(=O)N1CC2CN(CCc3ccc(Oc4nc5ncccc5s4)cc3)CC2C1 (stereo not shown) [Example 74, 5-{2-[4-([1,3]Thiazolo[4,5-b]pyridin-2-yloxy)Phenyl]ethyl}hexahydropyrrolo[3,4-c]pyrrole-2(1H)-carboxamide] | 0.0065 µM | 0.23 µM |
| NC(=O)N[C@H]1C[C@H]2CC[C@@H](C1)N2CCc1ccc(Oc2nc3ncccc3s2)cc1 [Example 77, meso-1-[(3-endo)-8-{2-[4-([1,3]Thiazolo[4,5-b]pyridin-2-yloxy)Phenyl]ethyl}-8-azabicyclo[3.2.1]oct-3-yl]urea] | 0.0029 µM | 0.19 µM |
| O=C(O)C1CCN(CCc2ccc(Oc3nc4ncccc4s3)cc2)CC1 [Example 81, 1-{2-[4-([1,3]Thiazolo[4,5-b]pyridin-2-yloxy)phenyl]ethyl}piperidine-4-carboxylic acid] | 0.027 µM | 4.25 µM |
| F[C@@H]1CCN(Cc2ccc(Oc3nc4ncccc4s3)cc2)C1 [Example 87, 2-(4-{[(3R)-3-Fluoropyrrolidin-1-yl]methyl}phenoxy)[1,3]thiazolo[4,5-b]pyridine] | 0.03 µM | 0.024 µM |
| OC1(c2ccccn2)CCN(Cc2ccc(Oc3nc4ncccc4s3)cc2)CC1 [Example 101, 4-Pyridin-2-yl-1-[4-([1,3]thiazolo[4,5-b]pyridin-2-yloxy)benzyl]piperidin-4-ol] | 0.011 µM | 0.003 µM |
| OC1(c2cccc(C(F)(F)F)c2)CCN(Cc2ccc(Oc3nc4ncccc4s3)cc2)CC1 [Example 103, 1-[4-([1,3]Thiazolo[4,5-b]pyridin-2-yloxy)benzyl]-4-[3-(trifluoromethyl)phenyl]piperidin-4-ol] | 0.01 µM | 0.12 µM |
| OC1(c2ccc(Cl)cc2)CCN(Cc2ccc(Oc3nc4ncccc4s3)cc2)CC1 [Example 104, 4-(4-Chlorophenyl)-1-[4-([1,3]thiazolo[4,5-b]pyridin-2-yloxy)benzyl]piperidin-4-ol] | 0.0019 µM | 0.028 µM |
| OC1(c2ccccc2)CCN(Cc2ccc(Oc3nc4ncccc4s3)cc2)CC1 [Example 105, 4-Phenyl-1-[4-([1,3]thiazolo[4,5-b]pyridin-2-yloxy)benzyl]piperidin-4-ol] | 0.00053 µM | 0.015 µM |
| CC(=O)N1C[C@H]2CC[C@@H](C1)N2Cc1ccc(Oc2nc3ncccc3s2)cc1 [Example 107, meso-2-(4-{[3-Acetyl-3,8-diazabicyclo[3.2.1]oct-8-yl]methyl}phenoxy)[1,3]thiazolo[4,5-b]pyridine] | 0.004 µM | 3 µM |
| NC(=O)N[C@@H]1C[C@H]2CC[C@@H](C1)N2Cc1ccc(Oc2nc3ncccc3s2)cc1 [Example 110, meso-1-{(3-exo)-8-[4-([1,3]Thiazolo[4,5-b]pyridin-2-yloxy)benzyl]-8-azabicyclo[3.2.1]oct-3-yl}urea] | 0.001 µM | 1.44 µM |
| NC(=O)N1C[C@H]2CC[C@@H](C1)N2Cc1ccc(Oc2nc3ncccc3s2)cc1 [Example 117, meso-8-[4-([1,3]Thiazolo[4,5-b]pyridin-2-yloxy)benzyl]-3,8-diazabicyclo[3.2.1]octane-3-carboxamide] | 0.009 µM | 0.018 µM |
| CC(=O)N[C@H]1C[C@H]2CC[C@@H](C1)N2Cc1ccc(Oc2nc3cccnc3s2)cc1 [Example 119, meso-N-{(3-endo)-8-[4-([1,3]Thiazolo[5,4-b]pyridin-2-yloxy)benzyl]-8-azabicyclo[3.2.1]oct-3-yl}acetamide] | 0.07 µM | 0.77 µM |

The remaining lines, values ahead:

| IC50 [1] | IC50 [2] | SMILES |
| --- | --- | --- |
| 0.008 µM | 0.05 µM | C[C@H]1COCCN1Cc1ccc(Oc2nc3ncccc3s2)cc1 [Example 88, 2-(4-{[(3S)-3-Methylmorpholin-4-yl]methyl}phenoxy)[1,3]thiazolo[4,5-b]pyridine] |
| 0.0008 µM | 0.023 µM | C[C@H]1CCCCN1Cc1ccc(Oc2nc3ncccc3s2)cc1 [Example 90, 2-(4-{[(2S)-2-Methylpiperidin-1-yl]methyl}phenoxy)[1,3]thiazolo[4,5-b]pyridine] |
| 0.039 µM | 0.68 µM | c1cnc2nc(Oc3ccc(CNCCN4CCCCC4)cc3)sc2c1 [Example 91, 2-Piperidin-1-yl-N-[4-([1,3]thiazolo[4,5-b]pyridin-2-yloxy)benzyl]ethanamine] |
| 0.004 µM | 0.067 µM | FC(F)(F)C1CCN(Cc2ccc(Oc3nc4ncccc4s3)cc2)CC1 [Example 92, 2-(4-{[4-(Trifluoromethyl)piperidin-1-yl]methyl}phenoxy)[1,3]thiazolo[4,5-b]pyridine] |
| 0.055 µM | 0.52 µM | FC1(F)CCN(Cc2ccc(Oc3nc4ncccc4s3)cc2)C1 [Example 93, 2-{4-[(3,3-Difluoropyrrolidin-1-yl)methyl]phenoxy}[1,3]thiazolo[4,5-b]pyridine] |
| 0.004 µM | 0.035 µM | O[C@@H]1CCN(Cc2ccc(Oc3nc4ncccc4s3)cc2)C1 [Example 94, (3R)-1-[4-([1,3]Thiazolo[4,5-b]pyridin-2-yloxy)benzyl]pyrrolidin-3-ol] |
| 0.011 µM | 0.029 µM | OCC1CCN(Cc2ccc(Oc3nc4ncccc4s3)cc2)CC1 [Example 95, {1-[4-([1,3]Thiazolo[4,5-b]pyridin-2-yloxy)benzyl]piperidin-4-yl}methanol] |
| 0.024 µM | 0.037 µM | FC1CCN(Cc2ccc(Oc3nc4ncccc4s3)cc2)CC1 [Example 96, 2-{4-[(4-Fluoropiperidin-1-yl)methyl]phenoxy}[1,3]thiazolo[4,5-b]pyridine] |
| 0.001 µM | 0.013 µM | CC1CCN(Cc2ccc(Oc3nc4ncccc4s3)cc2)CC1 [Example 97, 2-{4-[(4-Methylpiperidin-1-yl)methyl]phenoxy}[1,3]thiazolo[4,5-b]pyridine] |
| 0.006 µM | 0.009 µM | c1cncc(OC2CCN(Cc3ccc(Oc4nc5ncccc5s4)cc3)CC2)c1 [Example 98, 2-(4-{[4-(Pyridin-3-yloxy)piperidin-1-yl]methyl}phenoxy)[1,3]thiazolo[4,5-b]pyridine] |
| 0.002 µM | 0.008 µM | c1cnc(OC2CCN(Cc3ccc(Oc4nc5ncccc5s4)cc3)CC2)nc1 [Example 99, 2-(4-{[4-(Pyrimidin-2-yloxy)piperidin-1-yl]methyl}phenoxy)[1,3]thiazolo[4,5-b]pyridine] |
| 0.015 µM | 0.21 µM | c1ccc(CC2CCN(Cc3ccc(Oc4nc5ncccc5s4)cc3)CC2)cc1 [Example 102, 2-{4-[(4-Benzylpiperidin-1-yl)methyl]phenoxy}[1,3]thiazolo[4,5-b]pyridine] |
| 0.22 µM | 0.7 µM | CC(=O)N1C[C@@H]2C[C@H]1CN2Cc1ccc(Oc2nc3cccnc3s2)cc1 [Example 124, 2-(4-{[(1S,4S)-5-Acetyl-2,5-diazabicyclo[2.2.1]hept-2-yl]methyl}phenoxy)[1,3]thiazolo[5,4-b]pyridine] |
| 0.012 µM | 0.019 µM | CC(=O)N1C[C@@H]2C[C@H]1CN2Cc1ccc(Oc2nc3nccc(C)c3s2)cc1 [Example 125, 2-(4-{[(1S,4S)-5-Acetyl-2,5-diazabicyclo[2.2.1]hept-2-yl]methyl}phenoxy)-7-methyl[1,3]thiazolo[4,5-b]pyridine] |
